Laboratory results taken from article PMC12735921, “Evaluation of Antiproliferative Activity and Molecular Modeling Studies of Some Novel Benzimidazolone-Bridged Hybrid Compounds” (Pharmaceuticals, 2025).
“And” between values parts separate entries of the source, which are not always exact repeats. Identical values can stand only once. Marks after values point to notes of the source that are not given here.

What was measured:
Type in all cases: cell-based, human
A549 cells [1] = experiment: MTT cell viability assay, A549; details: for IC50: Homo sapiens, A549, MTT, 48 h, mean ± SD, n = 3; for A549 Selectivity Index (SI): SI = IC50 (HEK 293)/IC50 (A549)
Procedure: (§1) Cell viability assay was performed on the human lung cancer (A549) (ATCC CCL-185), human breast cancer (MCF-7) (ATCC-HTB-22), cervical cancer (HeLa) (ATCC-CCL-2), and human embryonic kidney 293 (HEK293) (ATCC-CRL-1573) cell lines, which were purchased from Deutsche Sammlung von Mikroorganismen und Zellkulturen (DSMZ, Braunschweig, Germany). The cells were maintained in Dulbecco’s modified Eagle’s medium (DMEM), supplemented with 10% fetal bovine serum (FBS), 2 mM L-glutamine, 100 U/mL penicillin, and 100 mg/L streptomycin (Biochrom AG, Berlin, Germany) at 37 °C in a humidified atmosphere of 5% CO2.
(§2) The cytotoxic effect was determined by the MTT (3-(4,5-dimethyl-2-thiazolyl)-2,5-diphenyl-2H-tetrazolium bromide) cell viability assay. Cells were seeded at an initial concentration of 1 × 10^5 cells/mL in 96-well microplates. Cells were then treated with different concentrations (0.5, 5, 10, 25, 50, 100 and 200 µM) of the novel synthesized compounds for 48 h. After the incubation period, the formed formazan crystals were dissolved in dimethyl sulfoxide (DMSO), and the optical density (OD) of the compounds was measured at 570 nm using a spectrophotometer (BMG Labtech, Ortenberg, Germany). Cytotoxicity was expressed as an increase in the mean percentage of cytotoxicity relative to the unexposed control ± standard deviation (SD). […] Control values were set at 0% cytotoxicity. IC50 was calculated by fitting the data to a sigmoidal curve using a four-parameter logistic model and was presented as an average of three independent measurements. […] Doxorubicin was used as a positive control. Each sample was tested in triplicate.
(§3) To evaluate the selectivity of the tested compound(s) toward cancer cells over normal cells, the Selectivity Index (SI) was calculated using the following formula:SI = IC50 (normal cells)/IC50 (cancer cells)
(§4) An SI value greater than 2 was considered to indicate selective cytotoxicity, while values below 2 were interpreted as non-selective. Higher SI values reflect greater therapeutic potential due to reduced toxicity toward normal cells.

MCF-7 cells [2] = experiment: MTT cell viability assay, MCF-7; details: for IC50: Homo sapiens, MCF7, MTT, 48 h, mean ± SD, n = 3; for MCF-7 Selectivity Index (SI): SI = IC50 (HEK 293)/IC50 (MCF-7)
Procedure: as §1, §2, §3, §4

HeLa cells [3] = experiment: MTT cell viability assay, HeLa; details: for IC50: Homo sapiens, HeLa, MTT, 48 h, mean ± SD, n = 3; for HeLa Selectivity Index (SI): SI = IC50 (HEK 293)/IC50 (HeLa)
Procedure: as §1, §2, §3, §4

HEK 293 cells = experiment: MTT cell viability assay, non-cancerous HEK 293; details: Homo sapiens, HEK293, 48 h, mean ± SD, n = 3
Procedure: as §1
The cytotoxic effect was determined by the MTT (3-(4,5-dimethyl-2-thiazolyl)-2,5-diphenyl-2H-tetrazolium bromide) cell viability assay. Cells were seeded at an initial concentration of 1 × 10^5 cells/mL in 96-well microplates. Cells were then treated with different concentrations (0.5, 5, 10, 25, 50, 100 and 200 µM) of the novel synthesized compounds for 48 h. After the incubation period, the formed formazan crystals were dissolved in dimethyl sulfoxide (DMSO), and the optical density (OD) of the compounds was measured at 570 nm using a spectrophotometer (BMG Labtech, Ortenberg, Germany). Cytotoxicity was expressed as an increase in the mean percentage of cytotoxicity relative to the unexposed control ± standard deviation (SD). […] Control values were set at 0% cytotoxicity. IC50 was calculated by fitting the data to a sigmoidal curve using a four-parameter logistic model and was presented as an average of three independent measurements. […] Each sample was tested in triplicate.

A549 cells [4] = experiment: LDH leakage assay, A549; details: A549, IC50 concentration of compound, 48 h; H2O2 positive control; mean ± SD, n = 3
Procedure: (§5) One hundred microliters of culture medium was transferred to a new 96-well plate. One hundred microliters of LDH reaction solution was added to each well, and absorbance was measured at 490 nm using an ELISA plate reader (BMG Labtech, Ortenberg, Germany) after 30 min.

A549 cells [5] = experiment: Total oxidative status (TOS), A549; details: A549, IC50 concentration of compound, 48 h; H2O2 250 µM positive control; mean ± SD, n = 3
Procedure: (§6) TOS were evaluated using a commercially available kit (Rel Assay Diagnostics®, Gaziantep, Turkey) according to the manufacturer’s instructions. […] The TOS assay quantifies oxidizing agents based on their ability to convert an iron (II) ion chelator complex to iron (III) ions. The results were calibrated against hydrogen peroxide (H2O2, 250 µM) as a positive control for 48 h and expressed as µmol H2O2 equivalents per liter. The analysis was performed in three independent biological replicates (n = 3).

A549 cells [6] = experiment: Intracellular GSH/GSSG ratio, A549; details: A549, IC50 concentration of compound, 48 h; H2O2 positive control; mean ± SD, n = 3
Procedure: (§7) Intracellular reduced (GSH) and oxidized (GSSG) glutathione levels were measured using the GSH/GSSG Ratio Detection Assay Kit (Cayman Chemical, Ann Arbor, MI, USA, Cat. No: 703002) according to the manufacturer’s protocol. […] After treatment, cells were washed with cold PBS and lysed with MES buffer provided in the kit.
(§8) To prevent oxidation of GSH to GSSG during processing, samples were deproteinized using the supplied metaphosphoric acid solution and neutralized accordingly. Total glutathione and GSSG levels were measured separately by adding the appropriate buffers and reagents to the wells of a 96-well plate, followed by the addition of DTNB recycling reagent and glutathione reductase. Absorbance was read at 405 nm using a microplate reader (BMG Labtech, Germany). The amount of GSH was calculated by subtracting 2 × GSSG from the total glutathione, and the GSH/GSSG ratio was used to assess intracellular redox status.

A549 cells [7] = experiment: Cell cycle analysis (PI staining, flow cytometry), A549; details: A549, IC50 concentration, 48 h, mean ± SEM, n = 3
Procedure: (§9) Cell cycle distribution was assessed by propidium iodide (PI) staining and flow cytometry. HeLa, MCF-7, and A549 cells were seeded in 6-well plates at a density of 1 × 10^5 cells per well and allowed to attach overnight. […] Following exposure, both adherent and floating cells were collected, washed twice with cold phosphate-buffered saline (PBS, pH 7.4), and fixed overnight in 70% cold ethanol at 4 °C. After fixation, the cells were centrifuged and resuspended in 500 µL of PI/RNase staining solution containing 50 µg/mL PI and 100 µg/mL RNase A (Sigma-Aldrich®, St. Louis, MO, USA), followed by incubation in the dark for 30 min at 37 °C. The stained samples were analyzed using a Muse™ Cell Analyzer (Merck, Millipore, Germany) equipped with a 488 nm excitation laser and a 617 nm emission filter. A minimum of 10,000 events per sample were acquired after exclusion of debris and doublets via FSC-A vs. FSC-H gating. The DNA content histograms were generated automatically, and cell populations were expressed as percentages of G0/G1, S, and G2/M phases using the Muse™ Cell Cycle Analysis Software 1.5.0.0. All assays were conducted in triplicate biological repeats (n = 3), and results were reported as mean ± SEM.

HeLa cells [8] = experiment: LDH leakage assay, HeLa; details: IC50 concentration of compound, 48 h, H2O2 positive control, mean ± SD, n = 3
Procedure: as §5

MCF-7 cells [9] = experiment: LDH leakage assay, MCF-7; details: MCF-7, IC50 concentration of compound, 48 h; H2O2 positive control; mean ± SD, n = 3
Procedure: as §5

HeLa cells [10] = experiment: Total oxidative status (TOS), HeLa; details: IC50 concentration of compound, 48 h, H2O2 250 µM positive control, mean ± SD, n = 3
Procedure: as §6

MCF-7 cells [11] = experiment: Total oxidative status (TOS), MCF-7; details: MCF-7, IC50 concentration of compound, 48 h; H2O2 250 µM positive control; mean ± SD, n = 3
Procedure: as §6

HeLa cells [12] = experiment: Intracellular GSH/GSSG ratio, HeLa; details: IC50 concentration of compound, 48 h, H2O2 positive control, mean ± SD, n = 3
Procedure: as §7, §8

MCF-7 cells [13] = experiment: Intracellular GSH/GSSG ratio, MCF-7; details: MCF-7, IC50 concentration of compound, 48 h; H2O2 positive control; mean ± SD, n = 3
Procedure: as §7, §8

HeLa cells [14] = experiment: Cell cycle analysis (PI staining, flow cytometry), HeLa; details: IC50 concentration, 48 h, mean ± SEM, n = 3
Procedure: as §9

MCF-7 cells [15] = experiment: Cell cycle analysis (PI staining, flow cytometry), MCF-7; details: MCF-7, IC50 concentration, 48 h, mean ± SEM, n = 3
Procedure: as §9

SMILES	IC50 (A549 cells [1])	A549 Selectivity Index (SI) (A549 cells [1])	IC50 (MCF-7 cells [2])	MCF-7 Selectivity Index (SI) (MCF-7 cells [2])	IC50 (HeLa cells [3])	HeLa Selectivity Index (SI) (HeLa cells [3])	IC50 (HEK 293 cells)	LDH (A549 cells [4])	TOS (A549 cells [5])	GSH/GSSG (A549 cells [6])	cells in G0/G1 phase (A549 cells [7])	cells in G2/M phase (A549 cells [7])	cells in S phase (A549 cells [7])	LDH (HeLa cells [8])	LDH (MCF-7 cells [9])	TOS (HeLa cells [10])	TOS (MCF-7 cells [11])	GSH/GSSG (HeLa cells [12])	GSH/GSSG (MCF-7 cells [13])	cells in G0/G1 phase (HeLa cells [14])	also measured
O=c1[nH]c2cc(Cl)c(Cl)cc2[nH]1 [Compound 1, 5,6-Dichloro-1,3-dihydro-2H-benzimidazol-2-one]	29.5 ± 1.7 µM	2.03	41.3 ± 2.4 µM	1.46	31.6 ± 1.82 µM	1.9	60.1 ± 3.47 µM	19.8 ± 1.7 µU/mL and 19.8 ± 1.7 ^a,b µU/mL	6.1 ± 0.4 µmol H2O2 eq/L and 6.1 ± 0.4 ^a,b µmol H2O2 eq/L	13.5 ± 1.3 nmol/mg Protein and 13.5 ± 1.3 ^a,b nmol/mg Protein	57.2 ± 1.9%	20.1 ± 1.5%	22.7 ± 1.5%	–	–	–	–	–	–	–	–
O=c1n(Cc2nnc(S)o2)c2cc(Cl)c(Cl)cc2n1Cc1nnc(S)o1 [Compound 7, 5,6-Dichloro-1,3-bis((5-mercapto-1,3,4-oxadiazol-2-yl)methyl)-1H-benzo[d]imidazol-2(3H)-one]	27.4 ± 1.58 µM	1.4	19.1 ± 1.1 µM	2.01	10.6 ± 0.61 µM	3.63	38.5 ± 2.2 µM	–	–	–	–	–	–	30.9 ± 2.7 µU/mL and 30.9 ± 2.7 ^a,b µU/mL	25.3 ± 2.0 µU/mL and 25.3 ± 2.0 ^a,b µU/mL	8.6 ± 0.7 µmol H2O2 eq/L and 8.6 ± 0.7 ^a,b µmol H2O2 eq/L	7.6 ± 0.6 µmol H2O2 eq/L and 7.6 ± 0.6 ^a,b µmol H2O2 eq/L	9.4 ± 1.0	11.3 ± 1.0 nmol/mg Protein and 11.3 ± 1.0 ^a,b nmol/mg Protein	38.4 ± 2.1%	cells in G2/M phase (HeLa cells [14]): 38.4 ± 1.9%; cells in S phase (HeLa cells [14]): 23.2 ± 1.5%; cells in G0/G1 phase (MCF-7 cells [15]): 69.0 ± 2.0%; cells in G2/M phase (MCF-7 cells [15]): 13.8 ± 1.2%; cells in S phase (MCF-7 cells [15]): 17.2 ± 1.3%
O=C(Cn1c(=O)n(CC(=O)NNC(=O)c2cc3cc(Br)ccc3oc2=O)c2cc(Cl)c(Cl)cc21)NNC(=O)c1cc2cc(Br)ccc2oc1=O [Compound 12c, N′,N′′′ -(2,2′-(5,6-dichloro-2-oxo-1H-benzo[d]imidazole-1,3(2H)-diyl)bis(acetyl))bis(6-bromo-2-oxo-2H-chromene-3-carbohydrazide)]	10.2 ± 0.58 µM	2.01	9.7 ± 0.56 µM	2.21	11.5 ± 0.66 µM	1.86	21.5 ± 1.24 µM	30.4 ± 2.6 µU/mL and 30.4 ± 2.6 ^a,b µU/mL	8.5 ± 0.7 µmol H2O2 eq/L and 8.5 ± 0.7 ^a,b µmol H2O2 eq/L	9.5 ± 0.8 nmol/mg Protein and 9.5 ± 0.8 ^a,b nmol/mg Protein	68.4 ± 2.4%	16.4 ± 1.5%	15.2 ± 1.3%	–	28.8 ± 2.2 µU/mL and 28.8 ± 2.2 ^a,b µU/mL	–	8.3 ± 0.6 µmol H2O2 eq/L and 8.3 ± 0.6 ^a,b µmol H2O2 eq/L	–	10.2 ± 1.0 nmol/mg Protein and 10.2 ± 1.0 ^a,b nmol/mg Protein	–	cells in G0/G1 phase (MCF-7 cells [15]): 72.2 ± 2.3%; cells in G2/M phase (MCF-7 cells [15]): 12.5 ± 1.1%; cells in S phase (MCF-7 cells [15]): 15.3 ± 1.2%
O=C(Cn1c(=O)n(CC(=O)NNC(=O)c2cc3cc(Cl)cc(Cl)c3oc2=O)c2cc(Cl)c(Cl)cc21)NNC(=O)c1cc2cc(Cl)cc(Cl)c2oc1=O [Compound 12d, N′,N′′′ -(2,2′-(5,6-dichloro-2-oxo-1H-benzo[d]imidazole-1,3(2H)-diyl)bis(acetyl))bis(6,8-Dichloro-2-oxo-2H-chromene-3-carbohydrazide)]	15.5 ± 0.89 µM	2.01	21.9 ± 1.26 µM	1.42	12.8 ± 0.73 µM	2.4	31.2 ± 1.8 µM	27.3 ± 2.2 µU/mL and 27.3 ± 2.2 ^a,b µU/mL	7.9 ± 0.6 µmol H2O2 eq/L and 7.9 ± 0.6 ^a,b µmol H2O2 eq/L	10.1 ± 0.9 nmol/mg Protein and 10.1 ± 0.9 ^a,b nmol/mg Protein	62.1 ± 2.1%	19.0 ± 1.5%	18.9 ± 1.4%	29.7 ± 2.4 µU/mL and 29.7 ± 2.4 ^a,b µU/mL	–	8.4 ± 0.6 µmol H2O2 eq/L and 8.4 ± 0.6 ^a,b µmol H2O2 eq/L	–	9.7 ± 1.0	–	40.1 ± 2.0%	cells in G2/M phase (HeLa cells [14]): 36.4 ± 1.8%
OO [Compound H2O2, hydrogen peroxide, reference compound]	–	–	–	–	–	–	–	40.7 ± 3.0 ^a µU/mL	10.5 ± 0.8 ^a µmol H2O2 eq/L	7.1 ± 0.9 ^a nmol/mg Protein	–	–	–	41.5 ± 3.2 ^a µU/mL	39.5 ± 2.7 ^a µU/mL	10.4 ± 0.7 ^a µmol H2O2 eq/L	10.1 ± 0.7 ^a µmol H2O2 eq/L	–	7.4 ± 0.9 ^a nmol/mg Protein	–	–
